Target: T1, CECR2 (Homo sapiens, UniProt Q9BXF3)
T1 construct: 424-538 was cloned, expressed, and purified to homogeneity; Flag; made in house
Test: CECR2 TR-FRET Binding Assay
Conditions: IC50 (uM)
From the text: IC50 Measurements for Inhibitors Using CECR2 TR-FRET Binding Assay

T1 sequence (Q9BXF3 424-538 limits assumed): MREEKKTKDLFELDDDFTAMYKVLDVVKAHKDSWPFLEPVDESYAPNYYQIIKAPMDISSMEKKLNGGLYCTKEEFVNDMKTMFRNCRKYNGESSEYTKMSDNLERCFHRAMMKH

| IC50 | Structure (SMILES) |
| --- | --- |
| 0.12 µM | C=CCn1cc(C(=O)N(C)C2CCN(c3cc(OC)ncn3)CC2)c2cc[nH]c2c1=O [Example 162, 6-allyl-N-[1-(6-methoxypyrimidin-4-yl)-4-piperidyl]-N-methyl-7-oxo-1H-pyrrolo[2,3-c]pyridine-4-carboxamide] |
| 0.21 µM | C=CCn1cc(C(=O)N(C)C2CCN(c3cc(C(F)(F)F)ncn3)CC2)c2cc[nH]c2c1=O [Example 164, 6-allyl-N-methyl-7-oxo-N-[1-[6-(trifluoromethyl)pyrimidin-4-yl]-4-piperidyl]-1H-pyrrolo[2,3-c]pyridine-4-carboxamide] |
| 0.042 µM | C=CCn1cc(C(=O)N(C)C2CCN(c3cc(-n4cccn4)ncn3)CC2)c2cc[nH]c2c1=O [Example 170, 6-allyl-N-methyl-7-oxo-N-[1-(6-pyrazol-1-ylpyrimidin-4-yl)-4-piperidyl]-1H-pyrrolo[2,3-c]pyridine-4-carboxamide] |

| Structure (SMILES) | IC50 |
| --- | --- |
| C=CCn1cc(C(=O)N(C)C2CCN(c3cc(C)nc(C)n3)CC2)c2cc[nH]c2c1=O [Example 165, 6-allyl-N-[1-(2,6-dimethylpyrimidin-4-yl)-4-piperidyl]-N-methyl-7-oxo-1H-pyrrolo[2,3-c]pyridine-4-carboxamide] | 0.087 µM |

Same assay, conditions: read-out: IC50

| Structure (SMILES) | IC50 |
| --- | --- |
| CN(C(=O)c1cn(C)c(=O)c2[nH]ccc12)C1CCN(c2cnccn2)CC1 [Example 143, N,6-dimethyl-7-oxo-N-(1-pyrazin-2-yl-4-piperidyl)-1H-pyrrolo[2,3-c]pyridine-4-carboxamide] | 0.4 µM |
| Cc1ccnc(N2CCC(N(C)C(=O)c3cn(C)c(=O)c4[nH]ccc34)CC2)n1 [Example 144, N,6-dimethyl-N-[1-(4-methylpyrimidin-2-yl)-4-piperidyl]-7-oxo-1H-pyrrolo[2,3-c]pyridine-4-carboxamide] | 0.43 µM |
| CN(C(=O)c1cn(C)c(=O)c2[nH]ccc12)C1CCN(c2cccnn2)CC1 [Example 145, N,6-dimethyl-7-oxo-N-(1-pyridazin-3-yl-4-piperidyl)-1H-pyrrolo[2,3-c]pyridine-4-carboxamide] | 0.41 µM |
| CN(C(=O)c1cn(C)c(=O)c2[nH]ccc12)C1CCN(c2ncc(F)cn2)CC1 [Example 147, N-[1-(5-fluoropyrimidin-2-yl)-4-piperidyl]-N,6-dimethyl-7-oxo-1H-pyrrolo[2,3-c]pyridine-4-carboxamide] | 0.51 µM |
| CN(CC1CCN(c2ccncn2)CC1)C(=O)c1cn(C)c(=O)c2[nH]ccc12 [Example 158, N,6-dimethyl-7-oxo-N-[(1-pyrimidin-4-yl-4-piperidyl)methyl]-1H-pyrrolo[2,3-c]pyridine-4-carboxamide] | 0.79 µM |

Other lines, results leading:

| IC50 | Structure (SMILES) |
| --- | --- |
| 0.18 µM | C=CCn1cc(C(=O)N(C)C2CCN(c3ccnc(C#N)n3)CC2)c2cc[nH]c2c1=O [Example 160, 6-allyl-N-[1-(2-cyanopyrimidin-4-yl)-4-piperidyl]-N-methyl-7-oxo-1H-pyrrolo[2,3-c]pyridine-4-carboxamide] |
| 0.091 µM | C=CCn1cc(C(=O)N(C)C2CCN(c3ncnc4c3CCC4)CC2)c2cc[nH]c2c1=O [Example 163, 6-allyl-N-[1-(6,7-dihydro-5H-cyclopenta[d]pyrimidin-4-yl)-4-piperidyl]-N-methyl-7-oxo-1H-pyrrolo[2,3-c]pyridine-4-carboxamide] |
| 0.12 µM | C=CCn1cc(C(=O)N(C)C2CCN(c3cc(C(C)C)ncn3)CC2)c2cc[nH]c2c1=O [Example 167, 6-allyl-N-[1-(6-isopropylpyrimidin-4-yl)-4-piperidyl]-N-methyl-7-oxo-1H-pyrrolo[2,3-c]pyridine-4-carboxamide] |
| 0.042 µM | C=CCn1cc(C(=O)N(C)C2CCN(c3cc(C)nc(C4CC4)n3)CC2)c2cc[nH]c2c1=O [Example 168, 6-allyl-N-[1-(2-cyclopropyl-6-methyl-pyrimidin-4-yl)-4-piperidyl]-N-methyl-7-oxo-1H-pyrrolo[2,3-c]pyridine-4-carboxamide] |
| 0.023 µM | C=CCn1cc(C(=O)N(C)C2CCN(c3cncc(-n4cccn4)n3)CC2)c2cc[nH]c2c1=O [Example 169, 6-allyl-N-methyl-7-oxo-N-[1-(6-pyrazol-1-ylpyrazin-2-yl)-4-piperidyl]-1H-pyrrolo[2,3-c]pyridine-4-carboxamide] |
